The text below walks through data of US7932283B2, “Fungicide N-cyclopropyl-sulfonylamide derivatives” (Bayer Cropscience AG, priority 2006, dated 2011).

The nature of data set [1]: logP by HPLC on reversed-phase column (C 18), EEC Directive 79/B31 Annex V.A8, methods A and B. Type of data set: physicochemical. As to conditions: reversed-phase HPLC column (C 18), HPLC reversed-phase C 18, method A: 43° C., 0.1% aqueous phosphoric acid, acetonitrile, linear gradient 10% to 90% acetonitrile. How it is done:
Calibration was carried out using unbranched alkan-2-ones (having 3 to 16 carbon atoms) with known logP values (determination of the logP values by the retention times using linear interpolation between two successive alkanones).

The next data set has as its system Podosphaera leucotricha. The data set can be described thus: In vivo test on Podosphaera leucotricha (apple mildew), preventive spray. The following applies: 240 h, apple young plants, evaluated 10 days after inoculation, good (at least 70%) to total protection. How it is done: In Vivo Test on Podosphaera leucotncha (Apple Mildew) [table] To produce a suitable preparation of active compound, 1 part by weight of active compound is mixed with the stated amounts of solvent and emulsifier, and the concentrate is diluted with water to the desired concentration. Young plants are sprayed with the preparation of active compound at the stated rate of application. After the spray coating has dried on, the plants are inoculated with an aqueous spore suspension of the causal agent of apple mildew (Podosphaera leucobicha). The plants are then placed in a greenhouse at approximately 23° C. and a relative atmospheric humidity of approximately 70%. The test is evaluated 10 days after the inoculation. Under these conditions, good (at least 70%) to total protection is observed at a dose of 100 ppm with the following compounds: 104, 160, 176, 177, 180, 186, 187, 188, 192, 194, 196, 198, 203, 204, 205, 207, 209, 210, 211, 212, 213, 218 and 446.

A further data set has as its system Pyrenophora teres. Nature of the data set: In vivo test on Pyrenophora teres (barley net blotch). The following applies: 288 h, barley plants (Express variety), grading 12 days after contamination, good (at least 70%) or total protection. How it is done:
In Vivo Test on Pyrenophore teres (Barley Net Blotch)
The active ingredients tested are prepared by homogenisation in a mixture of acetone/tween/DMSO, then diluted with water to obtain the desired active material concentration. Barley plants (Express variety) in starter cups, sown on a 50/50 peat soil-pozzolana substrate and grown at 12° C., are treated at the 1-leaf stage (10 cm tall) by spraying with the active ingredient prepared as described above. Plants, used as controls, are treated with the mixture of acetone/tween/DMSO/water not containing the active material.
After 24 hours, the plants are contaminated by spraying them with an aqueous suspension of Pyrenophora teres spores (12,000 spores per ml). The spores are collected from a 12-day-old culture. The contaminated barley plants are incubated for 24 hours at about 20° C. and at 100% relative humidity, and then for 12 days at 80% relative humidity.

The test system of data set [2] is Erysiphe graminis f.sp. horde. Nature of the data set: In vivo test on Erysiphe graminis (barley mildew), preventive spray. The following applies: Blumeria graminis, 168 h, barley young plants, evaluated 7 days after inoculation, good (at least 70%) to total protection. How it is done: In Vivo Test on Erysiphe Graminis (Barley Mildew) [table] To produce a suitable preparation of active compound, 1 part by weight of active compound or active compound combination is mixed with the stated amounts of solvent and emulsifier, and the concentrate is diluted with water to the desired concentration. Young plants are sprayed with the preparation of active compound or active compound combination at the stated rate of application. After the spray coating has dried on, the plants are dusted with spores of Erysiphe graminis f.sp. horde. The plants are placed in a greenhouse at a temperature of approximately 20° C. and a relative atmospheric humidity of approximately 80% to promote the development of mildew pustules. The test is evaluated 7 days after the inoculation. Under these conditions, good (at least 70%) to total protection is observed at a dose of 1000 ppm with the following compounds: 104, 160, 177, 178, 186, 192, 194, 203, 204, 205, 207, 210, 212, 213 and 435.

For the next data set, the system named is Alternaria solani. Nature of the data set: In vivo test on Alternaria solani (tomato leaf spot), preventive spray. The following applies: 168 h, tomato young plants, evaluated 7 days after inoculation, good (at least 70%) to total protection. How it is done: In Vivo Test on Alternaria Solani (Tomato Leaf Spot) [table] To produce a suitable preparation of active compound, 1 part by weight of active compound is mixed with the stated amounts of solvent and emulsifier, and the concentrate is diluted with water to the desired concentration. Young plants are sprayed with the preparation of active compound at the stated rate of application. After the spray coating has dried on, the plants are inoculated with an aqueous spore suspension of Alternaria solani. The plants remain for one day in an incubation cabinet at approximately 20° C. and a relative atmospheric humidity of 100%. Then the plants are placed in an incubation cabinet at approximately 20° C. and a relative atmospheric humidity of 96%. The test is evaluated 7 days after the inoculation. Under these conditions, good (at least 70%) to total protection is observed at a dose of 500 ppm with the following compounds 110, 143, 160, 175, 176, 178, 179, 180, 186, 187, 189, 192, 196, 198, 203, 204, 205, 209, 210, 212, 214, 215 and 652.

`Cc1nn(C)c(F)c1C(=O)N(C1CC1)S(=O)(=O)c1cccc(O)c1O` [Compound 210] gave a chromatographic logP in data set [1] of 2.77. In addition, the pest or weed control at 100 ppm with Podosphaera leucotricha was ≥ 70%. For the same molecule, the pest or weed control at 500 ppm in the data set on Pyrenophora teres and in the data set with Alternaria solani was ≥ 70% each time. Further, the pest or weed control at 1000 ppm in data set [2] is ≥ 70%.
